# Data as given in patent US20240105277A1, “DRUG DISCOVERY VIA REI[…] WITH THREE-D[…]” (priority 2022, published 2024).
# “And” between values parts separate entries of the source, which are not always exact repeats. Identical values can stand only once. Like-named read-outs stand apart in the source and are kept apart here.
# What was measured:
# SARS-CoV-2 M^pro [1] = biological target: T1, SARS-CoV-2 M^pro (Severe acute respiratory syndrome coronavirus 2, UniProt P0DTD1); conditions: for Ki / kinact (10^−3 s^−1): saturation profile, with SEM
# Procedure: (§1) Similar fluorescence assay was used to determine the time dependent IC50 curves. The plate with 10 μL of enzyme (1 μM) and 10 μL of the appropriate inhibitor dilution in 20 mM Tris-HCl, pH 7.35 with 1.25% DMSO was incubated at room temperature on a titer plate shaker with varying enzyme pre-incubation times (2, 15, 30, 45, 60 and 120 min) and centrifuged briefly at 1000 g just before incubation time ends. […] The equation Y=(Top-Bottom)/(1+1{circumflex over (0)}(X-log IC50))+Bottom; X=log(concentration) and Y=binding; was used in the nonlinear regression.
# SARS-CoV-2 M^pro [2] = biological target: T1, SARS-CoV-2 M^pro; conditions: for fold decrease in IC50, initial vs final inhibition value: t=2 minutes vs 2-hour preincubation
# Procedure: To validate the computational leads, the remaining compounds were subjected to a primary SARS-CoV-2 M^pro activity inhibition screen in which they were pre-incubated with the enzyme and the initial velocities of cleavage of a FRET peptide were determined. The Z′-factor of the assay was 0.65, and the distribution of z-scores of compounds and positive (no inhibitor) and negative (no enzyme) controls is shown in FIG. 20.
# For each compound, IC50 curves were generated using a continuous fluorescence assay. Reaction volumes of 40 μL were used in Corning half area 96-well plates. […] All the reactions were done in triplicate. For IC50 determination, the initial rate data was used, and the kinetic values were obtained directly from nonlinear regression of substrate-velocity curves in the presence of various concentrations of the inhibitor. The equation Y=(Top-Bottom)/(1+1{circumflex over (0)}(X-log IC50))+Bottom; X=log(concentration) and Y=binding; was used in the nonlinear regression.
# as §1
# Vero E6 (CRL-1586) cells = experiment: Cytotoxicity and cytopathic effect assay; assay type: cell-based; conditions: concentrations up to 10 μM, with or without PZ
# Procedure: The in vitro antiviral activity of all four hits was evaluated in Vero E6 (CRL-1586) cells. The antiviral properties of the inhibitors were assessed in the absence and presence of an efflux pump inhibitor (CP-100356, labeled PZ). […] Because of high cytotoxic effects of these compounds at high doses, the high doses were removed in the EC50 curve fit for these compounds.
# Briefly, on the day of infection, 5×10^3 Vero E6 cells were seeded in 20 μL cell culture medium (containing 5% FBS) in 384-well plates, using a MultiFlo FX multi-mode microplate dispenser (BioTek). The same day, compounds were added to the cells (25 μL/well, in EMEM with 5% FBS, 1% P/S), with 2 wells per concentration. After 2 h of compound preincubation, 5 μL of virus was added to the wells using a multi-channel pipette to MOI=0.1. Viruses were diluted in EMEM with 5% FBS, 1% P/S and was kept on ice until cells were ready for infection. Eight virus-only control wells were included as the […]. The virus plus cells and the cells were used to normalize the data set. After 72 h, 30 μL of CellTiter-Glo (Promega) was dispensed into each well by a MultiFlo FX multi-mode microplate dispenser. After a 10 min incubation at room temperature, the plates were loaded into a Perkin EnVision multi-mode microplate reader to read luminescence.
# [3] = read-out: IC50 (μM) - 2 min, 2 min co-incubation of enzyme and inhibitor, with standard deviation
# [4] = read-out: IC50 (μM) - 120 min, 120 min pre-incubation, with standard deviation
Compound,kinact/KI (SARS-CoV-2 M^pro [1]; inactivation efficiency),Ki (SARS-CoV-2 M^pro [1]),kinact (10^−3 s^−1) (SARS-CoV-2 M^pro [1]),IC50 (SARS-CoV-2 M^pro [2]; [3]),IC50 (SARS-CoV-2 M^pro [2]; [4]),"fold decrease in IC50, initial vs final inhibition value (SARS-CoV-2 M^pro [2])",cytotoxic effect (Vero E6 (CRL-1586) cells),kinact/KI fold higher relative to the other compounds (SARS-CoV-2 M^pro [1]),kinact/KI (M^−1 s^−1) (SARS-CoV-2 M^pro [1]; inactivation efficiency),"IC50 fold lower than the IC50s of the other compounds (SARS-CoV-2 M^pro [2]; preliminary analysis, 2 min)","IC50 (SARS-CoV-2 M^pro [2]; read-out: IC50 after a 2-hour preincubation, 2-hour preincubation)"
O=C(CCl)N1CCN(Cc2cccc(Cl)c2)CC1 [Compound B],697 ± 697 M⁻¹ s⁻¹,5.97 µM and 6 µM,4.2 ± 0.8 10^−3 s^−1,12.8 ± 5.1 µM,0.4 ± 0.13 µM,32 fold,–,–,–,–,–
O=C(CCl)N1CCN(Cc2cccc3ccccc23)CC1 [Compound A],441 ± 297 M⁻¹ s⁻¹,11.5 µM,5.1 ± 0.5 10^−3 s^−1,16.3 ± 1.3 µM,0.3 ± 0.03 µM,54 fold,less than other compounds,–,–,–,–
CC(C)CC1CN(C(=O)CCl)CCN1Cc1cccc(Cl)c1 (centres unmarked) [D],–,≥ 62.5 µM,≥16.6 10^−3 s^−1,16 ± 0.9 µM,0.41 ± 0.06 µM,39 fold,–,–,–,–,–
COc1ccc(C2CC(c3ccccc3)=NN2C(=O)CCl)cc1OC (centres unmarked) [Compound C],–,5.27 µM and 5.3 µM,23.5 ± 2.6 10^−3 s^−1,2.39 µM and 2.4 µM,–,15 fold,–,at least 4 fold,"4,460 M^−1 s^−1",at least 5 fold,0.16 µM
